Tests used:
rat [1] = assay: Forced swimming test in the rat (antidepressive properties); type: in vivo; conditions: for Immobility (sec) mean ± s.e.m.: 30 min before 5-min test, carrier 174.3 ± 9.1
Description: The forced swimming test (Porsolt R. et al, Eur. J. Pharmacol., 1978, 47, 379-91) is a behavioural test which comprises inducing a state of “despair” in the rat, by placing the naive animal in an enclosure full of water, from which it cannot escape, for a period of fifteen minutes. For the first five to ten minutes, the rat struggles vigorously but finally adopts an immobile posture during the last part of the test. Placed in the same enclosure on the following day, the animal remains immobile for most of the test (5 minutes' duration). Antidepressants reduce the duration of immobility of the rat during the test.
The experiment is carried out over two days, with a 24-hour interval, on rats having an average weight of 170 g, housed the day before in individual cages, with free access to food and drink.
On the first day, each rat is placed for fifteen minutes in a glass cylinder (20 cm diameter×40 cm high) filled to a height of 15 cm with water maintained at 25° C. On the second day, the animal is again placed in a cylinder for a period of five minutes; the total period of immobility (in seconds) of the rat is measured. The product or the solvent is administered to the animal thirty minutes before the beginning of the test. The effect of the products is statistically evaluated by analysis of variance over repeated measurements, followed by a Dunnett's test for comparison of the effects of different doses with the effect of the carrier (distilled water).

[2] = tested on: presynaptic dopaminergic autoreceptor; assay: Presynaptic dopaminergic autoreceptor activation: unitary extracellular electrical activity in the ventral tegmentum area of the rat; type: in vivo; conditions: cumulative doses, relative to basal activity = 100%, mean ± s.e.m., n = 5
Description: Test Recording the Unitary Extracellular Electrical Activity in the Ventral Tegmentum Area of the Rat
Administration of a dopaminergic agonist decreases neuron discharge frequency in dose-dependent manner. This effect is reversed by haloperidol, a dopaminergic antagonist.
The rats are anaesthetised using chloral hydrate (400 mg/kg, i.p.) and placed in a stereotactic apparatus (Unimécanique, France) after catheterisation of the femoral vein. The level of anaesthesia is maintained by i.p. administration of chloral hydrate every hour; rectal temperature is held at 37±1° C. by means of a thermostatically controlled heated blanket. A tungsten microelectrode (10 MΩ, 1 μm) is advanced, using an electronic microdrive (Unimécanique, France), into the ventral tegmentum area (AP: −5.5/bregma; L: 0.7; H: 7.0-8.5/dura; Paxinos and Watson atlas, 1986). The potentials of dopaminergic cells are recognised by their morphology (triphasic potentials +/−/+, of a duration greater than 3 msec), their discharge rhythm, whether regular or in bursts of decreasing amplitude, and their discharge frequency, which is from 2 to 8 Hz. A single cell per animal is used for recording.
After a period ≧5 minutes (basal activity) and an initial injection of carrier (distilled water to which a few drops of dilute lactic acid have been added; pH adjusted to 5 using 1N NaOH), the products of the invention are administered intravenously in cumulatively increasing doses at intervals of 2-3 minutes.
Data acquisition is performed by the Spike2 software package (Cambridge Electronic Design, England). The discharge frequency is measured over one minute at the maximum change between each injection and is expressed as the percentage change with respect to the basal activity (averaged over the 5 minutes preceding the first treatment), which is defined as 100%. The effect of the products is statistically evaluated by analysis of variance over repeated measurements, followed by a Dunnett's test for comparison of the effects of different doses with the effect of the carrier (distilled water).

rat [3] = assay: Ultrasonic vocalisation test in the rat (anxiolytic properties); type: in vivo; conditions: for Duration of ultrasonic vocalisations (s) mean ± s.e.m.: ten-minute recording, carrier 254.3 ± 42.1
Description: When a rat is placed in an environment previously associated with an unpleasant experience (electric shocks to the paws), its anxiety is shown by the emission of inaudible cries (or ultrasonic vocalisations).
Standard boxes (Coulbourn Instruments), placed in sound-attenuating ventilated enclosures, are provided with a floor composed of electrifiable metal bars (shock generator and scrambler, Med Associates Inc) and with a microphone located in the centre of the ceiling. The ultrasounds are converted into an audible range (bat detector, Buitenbedrijf). The signals modified in that manner are filtered and then processed (RTS software, Engineering Design). The spectrograms obtained are recorded on DAT tapes.
Male rats of the Wistar strain, weighing 180-200 g on their arrival, are housed in cages of four with free access to food and water, from five days before the start of the study until its end. The procedure employed is divided up into three successive stages separated by 24 hours and called training, selection and test. During the training session, the animals are placed singly in the boxes, where they receive six electric shocks (0.8 mA, 8 s) randomly spaced over a period of seven minutes. Selection comprises placing each animal in a box for two minutes, where they receive a single shock, and putting them back in the box thirty minutes later for a ten-minute session of recording the ultrasonic vocalisations; those animals whose vocalisations last less than 90 seconds are excluded from the remainder of the experiment. The test phase proceeds in a similar manner to the selection stage, with the products or the carrier additionally being administered at the end of the two-minute session. The effect of the products is statistically evaluated by analysis of variance over repeated measurements, followed by a Dunnett's test for comparison of the effects of different doses with the effect of the carrier (distilled water).

[4] = tested on: rats having a unilateral lesion of the Substantia nigra; assay: Rotations induced by dopaminergic agonists in rats having a unilateral 6-OH-DA lesion of the Substantia nigra; type: in vivo, rat; conditions: for Contralateral rotations mean ± s.e.m.: recorded for one hour, carrier 53.8 ± 12.8
[5] = target: T1, human dopamine D2 receptor (Homo sapiens, UniProt P14416); assay: Human D2 receptor binding study ([125I]-iodosulpride, CHO cell membranes); conditions: [125I]-iodosulpride 0.1 nM, read-out: pKi hD2 (converted)
T1 construct: expressed in transfected cells; membranes
T1 sequence (P14416 whole entry): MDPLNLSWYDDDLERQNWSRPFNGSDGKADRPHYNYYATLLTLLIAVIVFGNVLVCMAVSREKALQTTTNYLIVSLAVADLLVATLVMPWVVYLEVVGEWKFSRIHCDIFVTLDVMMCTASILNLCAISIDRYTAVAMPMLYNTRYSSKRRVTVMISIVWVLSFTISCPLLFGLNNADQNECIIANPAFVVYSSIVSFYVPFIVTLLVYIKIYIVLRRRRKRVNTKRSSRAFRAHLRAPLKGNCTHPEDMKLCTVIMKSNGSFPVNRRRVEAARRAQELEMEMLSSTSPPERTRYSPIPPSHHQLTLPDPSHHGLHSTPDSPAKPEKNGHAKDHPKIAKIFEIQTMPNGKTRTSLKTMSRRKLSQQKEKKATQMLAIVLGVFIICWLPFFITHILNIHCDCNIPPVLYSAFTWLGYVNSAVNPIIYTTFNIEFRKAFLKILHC
Description: (§1) CHO (Chinese Hamster Ovary) cells are stably transfected with the gene encoding the human dopamine D2 or D3 receptor, in accordance with methods known from the literature. The native cells are deficient in the enzyme DHFR (DiHydroFolate Reductase). […] The transfections are carried out using Lipofectin (Gibco). The CHO cells co-transfected with the human D2 receptor and the phleomycin resistance gene are selected for their resistance to the presence of that antibiotic in the culture medium. The cells transfected with the human D3 receptor are selected, in a medium lacking hypoxanthine/thymidine, in the presence of methotrexate. The compositions of the culture media used are: for CHO-D2, DMEM (Dulbecco's Modified Eagle Medium) supplemented with 10% foetal calf serum and hypoxanthine/thymidine; and for CHO-D3, DMEM supplemented with 10% dialysed foetal calf serum. The cells are harvested at confluence and the membranes are then prepared.
After a few minutes in the presence of 0.2% trypsin, the cells are collected and centrifuged at 2,000 g for 5 minutes. The cell mass, which is re-suspended in 10 mM Tris-HCl buffer pH 7.5 containing 5 mM MgSO4, is then homogenised using a Polytron®. The homogenate is then centrifuged at 50,000 g for 15 minutes, and the sediment is re-suspended by gentle sonication in an incubation buffer having the composition: 50 mM Tris-HCl pH 7.5 containing 120 mM NaCl, 5 mM KCl, 2 mM CaCl2, 5 mM MgCl2. The membranes are then divided into aliquots and stored at −80° C. until the day of the experiment.
The concentration ranges of each compound include at least seven points determined in triplicate. Each experiment is repeated at least twice.
The incubation, which lasts for thirty minutes at 30° C., is terminated by rapid filtering through a Brandle apparatus, followed by three consecutive rinsings with Tris-HCl buffer pH 7.4 containing 120 mM NaCl. The filters are collected and then subjected to counting using a gamma counter.
The results are expressed in the form of pKi (pKi=−logKi).

[6] = target: T2, human dopamine D3 receptor (Homo sapiens, UniProt P35462); assay: Human D3 receptor binding study ([125I]-iodosulpride, CHO cell membranes); conditions: [125I]-iodosulpride 0.2 nM, read-out: pKi hD3 (converted)
T2 construct: expressed in transfected cells; membranes
T2 sequence (P35462 whole entry): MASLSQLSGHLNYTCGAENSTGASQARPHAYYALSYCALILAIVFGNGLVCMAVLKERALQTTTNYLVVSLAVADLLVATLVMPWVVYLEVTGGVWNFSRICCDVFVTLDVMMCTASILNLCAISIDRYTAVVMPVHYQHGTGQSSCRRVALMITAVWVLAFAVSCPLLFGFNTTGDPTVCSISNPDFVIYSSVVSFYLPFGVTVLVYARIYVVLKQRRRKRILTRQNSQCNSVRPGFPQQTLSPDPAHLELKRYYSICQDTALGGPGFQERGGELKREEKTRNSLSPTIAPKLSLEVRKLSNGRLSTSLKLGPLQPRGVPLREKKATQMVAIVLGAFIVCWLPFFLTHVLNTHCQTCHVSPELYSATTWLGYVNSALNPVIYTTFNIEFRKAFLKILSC
Description: as §1
After a few minutes in the presence of 0.2% trypsin, the cells are collected and centrifuged at 2,000 g for 5 minutes. The cell mass, which is re-suspended in 10 mM Tris-HCl buffer pH 7.5 containing 5 mM MgSO4, is then homogenised using a Polytron®. […]
The concentration ranges of each compound include at least seven points determined in triplicate. […]

In the case of CCCN1CCO[C@@H]2c3cc4c(cc3CC[C@H]21)CNC4=O (single isomer, unassigned) [Example 2], the “Immobility (sec) mean ± s.e.m.” value (rat [1]; 0.02 mg/kg s.c.) is reported as 159.4 ± 7.9 s, the “Immobility (sec) mean ± s.e.m.” value (rat [1]; 0.04 mg/kg s.c.) is reported as 122.7 ± 21.2 s and the “Immobility (sec) mean ± s.e.m.” value (rat [1]; 0.08 mg/kg s.c.) is reported as 22.03 ± 5.8 s. The “Effect on period of immobility (in words)” value (rat [1]; s.c., rat) was “reduces the period of immobility of the animal in dose-dependent manner”, the Neuron discharge frequency ([2]; 0.125 μg/kg i.v.) was 91.8 ± 5.2% and the Neuron discharge frequency ([2]; 0.25 μg/kg i.v.) was 79.9 ± 5.9 %. For the same compound, the Neuron discharge frequency ([2]; 0.5 μg/kg i.v.) was 66.3 ± 5.9 %, the Neuron discharge frequency ([2]; 1.0 μg/kg i.v.) was 42.0 ± 7.3 % and the Neuron discharge frequency ([2]; 2.0 μg/kg i.v.) was 10.8 ± 8.7 %. For the same compound, the Neuron discharge frequency ([2]; 4.0 μg/kg i.v.) was 2.3 ± 2.3 %, the Neuron discharge frequency ([2]; 8.0 μg/kg i.v.) was 0.0 ± 0.0 % and the “Duration of ultrasonic vocalisations (s) mean ± s.e.m.” value (“Duration of ultrasonic vocalisations” for short) (rat [3]; 0.0025 mg/kg s.c.) was 274.0 ± 59.0 s. The “Duration of ultrasonic vocalisations” value (rat [3]; 0.04 mg/kg s.c.) was 28.0 ± 5.6 s, the “Duration of ultrasonic vocalisations” value (rat [3]; 0.63 mg/kg s.c.) was 22.0 ± 3.2 s and the “Effect on duration of vocalisations (in words)” value (rat [3]; doses of 0.04 and 0.63 mg/kg s.c.) was “substantial reduction in the duration of vocalisations”. The “Contralateral rotations mean ± s.e.m.” value ([4]; 0.00063 mg/kg s.c.) was 157.4 ± 32.1, the “Contralateral rotations mean ± s.e.m.” value ([4]; 0.0025 mg/kg s.c.) was 337.3 ± 48.3 and the “Contralateral rotations mean ± s.e.m.” value ([4]; 0.01 mg/kg s.c.) was 553.8 ± 138.3. For the same compound, the “Dose from which the product is active in the rotation test” value ([4]; s.c.) was no less than 2.5 µg/kg.

For CN1CCc2cccc3c2[C@H]1Cc1ccc(O)c(O)c1-3 [Apomorphine, apomorphine, reference compound], the “Contralateral rotations mean ± s.e.m.” value ([4]; 0.02 mg/kg s.c.) was 497.2 ± 91.4.

Compound CCCN1CCO[C@@H]2c3cc4c(cc3CC[C@H]21)COC4=O [Example 4, (4aR,11bR)-4-Propyl-2,3,4,4a,5,6,8,11b-octahydro-10H-furo[3′,4′:6,7]-naphtho[1,2-b][1,4]oxazin-10-one] has a Ki [5] of 2000 nM.

Work on CCCN1CCO[C@@H]2c3cc4c(cc3CC[C@H]21)CCOC4=O [Example 5, (4aR,12bR)-4-Propyl-3,4,4a,5,6,8,9,12b-octahydro-2H,11H-pyrano-[4′,3′:6,7]naphtho[1,2-b][1,4]oxazin-11-one] yielded a Ki [6] of 126 nM and a Ki [5] of 1580 nM.

For CCCN1CCO[C@@H]2c3cc4c(cc3CC[C@H]21)CCNC4=O [Example 6, (4aR,12bR)-4-Propyl-2,3,4,4a,5,6,8,9,10,12b-decahydro-11H-isoquino-[6,7-h][1,4]benzoxazin-11-one], the Ki [5] was 794 nM.

Compound CCCN1CCO[C@@H]2c3cc4c(=O)[nH]ccc4cc3CC[C@H]21 [Example 8, (4aR,12bR)-4-Propyl-2,3,4,4a,5,6,10,12b-octahydro-11H-isoquino-[6,7-h][1,4]benzoxazin-11-one] has a Ki [5] of 1260 nM.

Source: patent publication US7470683B2, “Tetracyclic compounds” (Les Laboratoires Servier, priority 2006, dated 2008)
